Measurements published in PubChem BioAssay AID2060903 (Molecular Pharmacology Branch, DTP, NCI, 2025).

Test system: 377384-186-R-J1-PDC complex spheroid viability
Assay: Anticancer human tumor 377384-186-R-J1-PDC patient-derived pancreatic carcinoma cell line growth inhibition [RAS]
Settings: for IC50: curve of first compound; for viability, T/C: stronger effect = lower value
Method in brief: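 Agents were tested in combination matrices in half-log decrements from a top concentration at or near clinical Cmax (10 microM if undetermined). Targets were multi-cell spheroids of tumour lines plus HUVEC and MSC stromal cells.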
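Also: spheroids exposed to compounds for seven days before readout.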

Q: Which results are given for `CC(Nc1ccc2c(c1)OCCn1cc(N3C(=O)OCC3C(F)F)nc1-2)C(N)=O` (centres undefined) + CCn1c(-c2cc(N3CCN(C)CC3)cnc2C(C)OC)c2c3cc(ccc31)-c1csc(n1)CC(NC(=O)C1CC1C)C(=O)N1CCCC(N1)C(=O)OCC(C)(C)C2?
A: IC50 (second compound 0.000949 µM): < 31.6 nM; IC50 (second compound 0.003 µM): < 31.6 nM; IC50 (second compound 0.00949 µM): < 31.6 nM; IC50 (second compound 0.03 µM): < 31.6 nM; IC50 (second compound 0.0949 µM): < 31.6 nM; IC50 (second compound 0.3 µM): < 31.6 nM; viability, T/C (second compound 0.000949 µM, first compound 0.0316 µM): 38.5%; viability, T/C (second compound 0.000949 µM, first compound 0.1 µM): 27%; viability, T/C (second compound 0.000949 µM, first compound 0.316 µM): 20.7%; viability, T/C (second compound 0.000949 µM, first compound 1 µM): 14.9%; viability, T/C (second compound 0.000949 µM, first compound 3.16 µM): 15.3%; viability, T/C (second compound 0.000949 µM, first compound 10 µM): 10%; viability, T/C (second compound 0.003 µM, first compound 0.0316 µM): 16.6%; viability, T/C (second compound 0.003 µM, first compound 0.1 µM): 13.9%; viability, T/C (second compound 0.003 µM, first compound 0.316 µM): 6.73%; viability, T/C (second compound 0.003 µM, first compound 1 µM): 6.02%; viability, T/C (second compound 0.003 µM, first compound 3.16 µM): 4.06%; viability, T/C (second compound 0.003 µM, first compound 10 µM): 4.35%; viability, T/C (second compound 0.00949 µM, first compound 0.0316 µM): 4.34%; viability, T/C (second compound 0.00949 µM, first compound 0.1 µM): 2.53%; viability, T/C (second compound 0.00949 µM, first compound 0.316 µM): 3.61%; viability, T/C (second compound 0.00949 µM, first compound 1 µM): 1.94%; viability, T/C (second compound 0.00949 µM, first compound 3.16 µM): 1.23%; viability, T/C (second compound 0.00949 µM, first compound 10 µM): 0.59%; viability, T/C (second compound 0.03 µM, first compound 0.0316 µM): 1.88%; viability, T/C (second compound 0.03 µM, first compound 0.1 µM): 1.58%; viability, T/C (second compound 0.03 µM, first compound 0.316 µM): 0.84%; viability, T/C (second compound 0.03 µM, first compound 1 µM): 0.45%; viability, T/C (second compound 0.03 µM, first compound 3.16 µM): 0.4%; viability, T/C (second compound 0.03 µM, first compound 10 µM): 0.18%; viability, T/C (second compound 0.0949 µM, first compound 0.0316 µM): 1.11%; viability, T/C (second compound 0.0949 µM, first compound 0.1 µM): 0.55%; viability, T/C (second compound 0.0949 µM, first compound 0.316 µM): 0.59%; viability, T/C (second compound 0.0949 µM, first compound 1 µM): 0.36%; viability, T/C (second compound 0.0949 µM, first compound 3.16 µM): 0.09%; viability, T/C (second compound 0.0949 µM, first compound 10 µM): 0.09%; viability, T/C (second compound 0.3 µM, first compound 0.0316 µM): 1.13%; viability, T/C (second compound 0.3 µM, first compound 0.1 µM): 0.5%; viability, T/C (second compound 0.3 µM, first compound 0.316 µM): 0.4%; viability, T/C (second compound 0.3 µM, first compound 1 µM): 0.29%; viability, T/C (second compound 0.3 µM, first compound 3.16 µM): 0.21%; viability, T/C (second compound 0.3 µM, first compound 10 µM): 0.14%

Q: `C=CC(=O)Nc1cc(Nc2nccc(-c3cn(C)c4ccccc34)n2)c(OC)cc1N(C)CCN(C)C` + C=CC(=O)N1CCN(c2nc(OCC3CCCN3C)nc3c(F)c(-c4nc(N)cc(C)c4C(F)(F)F)c(Cl)cc23)C(C)C1 was tested. Which IC50 (second compound 0.00316 µM) did it give?
A: 659 nM

Q: What about the IC50 (second compound 0.01 µM) of the same molecule?
A: 602 nM

Q: And the IC50 (second compound 0.0316 µM)?
A: 851 nM

Q: And the IC50 (second compound 0.1 µM)?
A: 821 nM

Q: And the IC50 (second compound 0.316 µM)?
A: 905 nM

Q: What about the IC50 (second compound 1 µM) of the same molecule?
A: 800 nM

Q: What about the viability, T/C (second compound 0.00316 µM, first compound 0.00316 µM) of the same molecule?
A: 99.4%

Q: What about the viability, T/C (second compound 0.00316 µM, first compound 0.01 µM) of the same molecule?
A: 90.1%

Q: And the viability, T/C (second compound 0.00316 µM, first compound 0.0316 µM)?
A: 98.1%

Q: And the viability, T/C (second compound 0.00316 µM, first compound 0.1 µM)?
A: 81.3%

Q: And the viability, T/C (second compound 0.00316 µM, first compound 0.316 µM)?
A: 61%

Q: And the viability, T/C (second compound 0.00316 µM, first compound 1 µM)?
A: 43.9%

Q: And the viability, T/C (second compound 0.01 µM, first compound 0.00316 µM)?
A: 87.6%

Q: What about the viability, T/C (second compound 0.01 µM, first compound 0.01 µM) of the same molecule?
A: 86.8%

Q: And the viability, T/C (second compound 0.01 µM, first compound 0.0316 µM)?
A: 87.8%

Q: And the viability, T/C (second compound 0.01 µM, first compound 0.1 µM)?
A: 81.2%

Q: And the viability, T/C (second compound 0.01 µM, first compound 0.316 µM)?
A: 59.9%

Q: And the viability, T/C (second compound 0.01 µM, first compound 1 µM)?
A: 42.2%

Q: What about the viability, T/C (second compound 0.0316 µM, first compound 0.00316 µM) of the same molecule?
A: 96.7%

Q: And the viability, T/C (second compound 0.0316 µM, first compound 0.01 µM)?
A: 81.5%

Q: What about the viability, T/C (second compound 0.0316 µM, first compound 0.0316 µM) of the same molecule?
A: 90.7%

Q: What about the viability, T/C (second compound 0.0316 µM, first compound 0.1 µM) of the same molecule?
A: 79.1%

Q: And the viability, T/C (second compound 0.0316 µM, first compound 0.316 µM)?
A: 64.6%

Q: What about the viability, T/C (second compound 0.0316 µM, first compound 1 µM) of the same molecule?
A: 47.5%

Q: And the viability, T/C (second compound 0.1 µM, first compound 0.00316 µM)?
A: 96.4%

Q: What about the viability, T/C (second compound 0.1 µM, first compound 0.01 µM) of the same molecule?
A: 88.8%

Q: And the viability, T/C (second compound 0.1 µM, first compound 0.0316 µM)?
A: 102%

Q: What about the viability, T/C (second compound 0.1 µM, first compound 0.1 µM) of the same molecule?
A: 77.3%

Q: What about the viability, T/C (second compound 0.1 µM, first compound 0.316 µM) of the same molecule?
A: 70%

Q: What about the viability, T/C (second compound 0.1 µM, first compound 1 µM) of the same molecule?
A: 46%

Q: And the viability, T/C (second compound 0.316 µM, first compound 0.00316 µM)?
A: 92.1%

Q: And the viability, T/C (second compound 0.316 µM, first compound 0.01 µM)?
A: 98.3%

Q: And the viability, T/C (second compound 0.316 µM, first compound 0.0316 µM)?
A: 83.8%

Q: And the viability, T/C (second compound 0.316 µM, first compound 0.1 µM)?
A: 77.9%

Q: And the viability, T/C (second compound 0.316 µM, first compound 0.316 µM)?
A: 64.8%

Q: And the viability, T/C (second compound 0.316 µM, first compound 1 µM)?
A: 48.4%

Q: And the viability, T/C (second compound 1 µM, first compound 0.00316 µM)?
A: 93.2%

Q: What about the viability, T/C (second compound 1 µM, first compound 0.01 µM) of the same molecule?
A: 84.1%

Q: And the viability, T/C (second compound 1 µM, first compound 0.0316 µM)?
A: 85.2%

Q: What about the viability, T/C (second compound 1 µM, first compound 0.1 µM) of the same molecule?
A: 83.9%

Q: What about the viability, T/C (second compound 1 µM, first compound 0.316 µM) of the same molecule?
A: 65.6%

Q: And the viability, T/C (second compound 1 µM, first compound 1 µM)?
A: 46.2%
